Results as given in patent US9073855B2, “BCL-2 selective apoptosis-inducing agents for the treatment of cancer and immune diseases” (AbbVie Inc., priority 2008, dated 2015).

Legend:
GST-Bcl-XL = GST-Bcl-XL (Homo sapiens, UniProt Q07817); assay: TR-FRET binding assay, GST-Bcl-XL with F-Bak peptide probe; conditions: TR-FRET Binding Affinity, GST-Bcl-XL, F-Bak peptide probe
Procedure, shortened: (§1)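 Competitive TR-FRET: GST-fusion protein, fluorescent Bak peptide probe and Tb-labelled anti-GST antibody incubated with compound dilution series (starting 50 μM as 2× stock, 10% DMSO) for 3 h at RT. Excitation 340/35 nm; Ki derived via Wang's exact competitive-binding equation.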

GST-Bcl-2 = GST-Bcl-2 (Homo sapiens, UniProt P10415); assay: TR-FRET binding assay, GST-Bcl-2 with F-Bak peptide probe; conditions: for Ki: TR-FRET Binding Affinity, GST-Bcl-2, F-Bak peptide probe; for Binding selectivity ratio (Bcl-XL Ki/Bcl-2 Ki): ratio of TR-FRET Ki values, Bcl-XL over Bcl-2
Sequence of GST-Bcl-2 (P10415 whole entry): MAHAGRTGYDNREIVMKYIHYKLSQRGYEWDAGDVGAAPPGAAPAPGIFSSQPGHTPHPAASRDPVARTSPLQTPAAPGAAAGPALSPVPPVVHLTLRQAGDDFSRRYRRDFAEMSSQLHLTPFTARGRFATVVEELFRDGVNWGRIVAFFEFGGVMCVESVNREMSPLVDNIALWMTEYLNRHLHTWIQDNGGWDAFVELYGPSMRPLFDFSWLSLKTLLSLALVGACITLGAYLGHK
Procedure, shortened: as §1

FL5.12/Bcl-2 cells = assay: FL5.12/Bcl-2 cell viability assay under IL-3 withdrawal (CellTitre Glo); format: cell-based, murine; conditions: Mus musculus, IL-3 withdrawn 48 hrs, then 24 hrs with compound
Procedure, shortened: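 Bcl-2-overexpressing murine FL5.12 transfectants underwent IL-3 removal for 48 hrs before a 24 hr compound treatment. Cell viability was quantified with CellTitre Glo.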

Sequence of GST-Bcl-XL (Q07817 whole entry, the tested form may be a part): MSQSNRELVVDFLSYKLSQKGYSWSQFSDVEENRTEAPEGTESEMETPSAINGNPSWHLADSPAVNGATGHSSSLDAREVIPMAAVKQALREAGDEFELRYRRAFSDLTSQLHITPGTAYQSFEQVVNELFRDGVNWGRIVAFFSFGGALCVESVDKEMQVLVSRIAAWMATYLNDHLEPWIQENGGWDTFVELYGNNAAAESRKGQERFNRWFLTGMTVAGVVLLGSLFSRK

Row | SMILES | Ki (GST-Bcl-XL) | Ki (GST-Bcl-2) | Binding selectivity ratio (Bcl-XL Ki/Bcl-2 Ki) (GST-Bcl-2) | EC50 (FL5.12/Bcl-2 cells)
1 | CN1CCC(Nc2ccc(S(=O)(=O)NC(=O)c3ccc(N4CCN(CC5=C(c6ccc(Cl)cc6)CC(C)(C)CC5)CC4)cc3Nc3cccnc3)cc2[N+](=O)[O-])CC1 [Example 396, 4-(4-{[2-(4-chlorophenyl)-4,4-dimethylcyclohex-1-en-1-yl]methyl}piperazin-1-yl)-N-({4-[(1-methylpiperidin-4-yl)amino]-3-nitrophenyl}sulfonyl)-2-(pyridin-3-ylamino)benzamide] | > 660000 nM | 116 nM | >5705.9 | > 500 nM
2 | CC1(C)CCC(CN2CCN(c3ccc(C(=O)NS(=O)(=O)c4ccc(NCC5(C)COC5)c([N+](=O)[O-])c4)c(Oc4ccc5[nH]ccc5c4)c3)CC2)=C(c2ccc(Cl)cc2)C1 [Example 264, 4-(4-{[2-(4-chlorophenyl)-4,4-dimethylcyclohex-1-en-1-yl]methyl}piperazin-1-yl)-2-(1H-indol-5-yloxy)-N-[(4-{[(3-methyloxetan-3-yl)methyl]amino}-3-nitrophenyl)sulfonyl]benzamide] | > 660 nM | 0.235 nM |  | 25.7 nM
3 | COC1CCN(c2ccc(S(=O)(=O)NC(=O)c3ccc(N4CCN(CC5=C(c6ccc(Cl)cc6)CC(C)(C)CC5)CC4)cc3Oc3ccc4[nH]ccc4c3)cc2[N+](=O)[O-])CC1 [Example 271, 4-(4-{[2-(4-chlorophenyl)-4,4-dimethylcyclohex-1-en-1-yl]methyl}piperazin-1-yl)-2-(1H-indol-5-yloxy)-N-{[4-(4-methoxypiperidin-1-yl)-3-nitrophenyl]sulfonyl}benzamide] | > 660 nM | 6.16 nM |  | > 500 nM
4 | CC1(C)CCC(CN2CCN(c3ccc(C(=O)NS(=O)(=O)c4ccc(NC5CCN(CCCC(F)(F)F)CC5)c([N+](=O)[O-])c4)c(Oc4ccc5[nH]ccc5c4)c3)CC2)=C(c2ccc(Cl)cc2)C1 [Example 216, 4-(4-{[2-(4-chlorophenyl)-4,4-dimethylcyclohex-1-en-1-yl]methyl}piperazin-1-yl)-2-(1H-indol-5-yloxy)-N-[(3-nitro-4-{[1-(4,4,4-trifluorobutyl)piperidin-4-yl]amino}phenyl)sulfonyl]benzamide] | > 660 nM | 0.615 nM |  | 39.8 nM
5 | CC(c1ccccc1-c1ccc(Cl)cc1)N1CCN(c2ccc(C(=O)NS(=O)(=O)c3ccc(NN4CCN(C)CC4)c([N+](=O)[O-])c3)c(Oc3cccc4[nH]ccc34)c2)CC1 (centres unmarked) [Example 217, 4-{4-[1-(4′-chloro-1,1′-biphenyl-2-yl)ethyl]piperazin-1-yl}-2-(1H-indol-4-yloxy)-N-({4-[(4-methylpiperazin-1-yl)amino]-3-nitrophenyl}sulfonyl)benzamide] | 44.8 nM | 0.262 nM |  | 20.8 nM
6 | CC1(C)CCC(CN2CCN(c3ccc(C(=O)NS(=O)(=O)c4ccc(NC5CCN(CCCO)CC5)c([N+](=O)[O-])c4)c(Oc4cccc5[nH]ccc45)c3)CC2)=C(c2ccc(Cl)cc2)C1 [Example 195, 4-(4-{[2-(4-chlorophenyl)-4,4-dimethylcyclohex-1-en-1-yl]methyl}piperazin-1-yl)-N-[(4-{[1-(3-hydroxypropyl)piperidin-4-yl]amino}-3-nitrophenyl)sulfonyl]-2-(1H-indol-4-yloxy)benzamide] | 6.71 nM | 0.039 nM |  | 11.2 nM
7 | CN1CCC(Nc2ccc(S(=O)(=O)NC(=O)c3ccc(N4CCN(CC5=C(c6ccc(Cl)cc6)CC(C)(C)CC5)CC4)c(F)c3Oc3ccc4[nH]ccc4c3)cc2[N+](=O)[O-])CC1 [Example 184, 4-(4-{[2-(4-chlorophenyl)-4,4-dimethylcyclohex-1-en-1-yl]methyl}piperazin-1-yl)-3-fluoro-2-(1H-indol-5-yloxy)-N-({4-[(1-methylpiperidin-4-yl)amino]-3-nitrophenyl}sulfonyl)benzamide] | > 660 nM | 0.281 nM |  | 27 nM
8 | CC1(C)CCC(CN2CCN(c3ccc(C(=O)NS(=O)(=O)c4ccc(NCC5(F)CCOCC5)c([N+](=O)[O-])c4)c(Oc4cccc5[nH]ncc45)c3)CC2)=C(c2ccc(Cl)cc2)C1 [Example 409, 4-(4-{[2-(4-chlorophenyl)-4,4-dimethylcyclohex-1-en-1-yl]methyl}piperazin-1-yl)-N-[(4-{[(4-fluorotetrahydro-2H-pyran-4-yl)methyl]amino}-3-nitrophenyl)sulfonyl]-2-(1H-indazol-4-yloxy)benzamide] | 17.5 nM | < 0.01 nM |  | 1.2 nM
9 | Cn1cncc1CNc1ccc(S(=O)(=O)NC(=O)c2ccc(N3CCN(CC4=C(c5ccc(Cl)cc5)CC(C)(C)CC4)CC3)cc2Oc2ccc3[nH]ccc3c2)cc1[N+](=O)[O-] [Example 360, 4-(4-{[2-(4-chlorophenyl)-4,4-dimethylcyclohex-1-en-1-yl]methyl}piperazin-1-yl)-2-(1H-indol-5-yloxy)-N-[(4-{[(1-methyl-1H-imidazol-5-yl)methyl]amino}-3-nitrophenyl)sulfonyl]benzamide] | 144 nM | 0.228 nM |  | 106 nM
10 | CC1(C)CCC(CN2CCN(c3ccc(C(=O)NS(=O)(=O)c4cccc(C(=O)NCC5CCOCC5)c4)c(Oc4ccc5[nH]ccc5c4)c3)CC2)=C(c2ccc(Cl)cc2)C1 [Example 345, 4-(4-{[2-(4-chlorophenyl)-4,4-dimethylcyclohex-1-en-1-yl]methyl}piperazin-1-yl)-2-(1H-indol-5-yloxy)-N-[(3-{[(tetrahydro-2H-pyran-4-ylmethyl)amino]carbonyl}phenyl)sulfonyl]benzamide] | > 660 nM | 1.15 nM |  | > 500 nM
11 | O=C(NS(=O)(=O)c1ccc(NC2CCN(C3CCOCC3)CC2)c([N+](=O)[O-])c1)c1ccc(N2CCN(CC3=C(c4ccc(Cl)cc4)CCC(O)C3)CC2)cc1Oc1ccc2[nH]ccc2c1 (centres unmarked) [Example 225, 4-(4-{[2-(4-chlorophenyl)-5-hydroxycyclohex-1-en-1-yl]methyl}piperazin-1-yl)-2-(1H-indol-5-yloxy)-N-({3-nitro-4-[(1-tetrahydro-2H-pyran-4-ylpiperidin-4-yl)amino]phenyl}sulfonyl)benzamide] | 3.48 nM | 0.01 nM |  | 29.9 nM
12 | CC1(C)CCC(CN2CCN(c3ccc(C(=O)NS(=O)(=O)c4ccc(NCC5(N)CCOCC5)c([N+](=O)[O-])c4)c(Oc4cccc5[nH]ccc45)c3)CC2)=C(c2ccc(Cl)cc2)C1 [Example 176, N-[(4-{[(4-aminotetrahydro-2H-pyran-4-yl)methyl]amino}-3-nitrophenyl)sulfonyl]-4-(4-{[2-(4-chlorophenyl)-4,4-dimethylcyclohex-1-en-1-yl]methyl}piperazin-1-yl)-2-(1H-indol-4-yloxy)benzamide] | 32 nM | 0.18 nM |  | 58.5 nM
13 | COCCOCCNc1ccc(S(=O)(=O)NC(=O)c2ccc(N3CCN(CC4=C(c5ccc(Cl)cc5)CC(C)(C)CC4)CC3)cc2Oc2ccc3[nH]ccc3c2)cc1[N+](=O)[O-] [Example 298, 4-(4-{[2-(4-chlorophenyl)-4,4-dimethylcyclohex-1-en-1-yl]methyl}piperazin-1-yl)-2-(1H-indol-5-yloxy)-N-[(4-{[2-(2-methoxyethoxy)ethyl]amino}-3-nitrophenyl)sulfonyl]benzamide] | 446 nM | 0.315 nM |  | 19.5 nM
14 | CC1(C)CCC(CN2CCN(c3ccc(C(=O)NS(=O)(=O)c4ccc(NCC5CCCCC5)c([N+](=O)[O-])c4)c(Oc4ccc5[nH]ccc5c4)c3)CC2)=C(c2ccc(Cl)cc2)C1 [Example 259, 4-(4-{[2-(4-chlorophenyl)-4,4-dimethylcyclohex-1-en-1-yl]methyl}piperazin-1-yl)-N-({4-[(cyclohexylmethyl)amino]-3-nitrophenyl}sulfonyl)-2-(1H-indol-5-yloxy)benzamide] | > 660 nM | 1.99 nM |  | > 500 nM
15 | CC1(C)CCC(CN2CCN(c3ccc(C(=O)NS(=O)(=O)c4cnc(OCC5(F)CCOCC5)c(C#N)c4)c(Oc4cccc5[nH]ncc45)c3)CC2)=C(c2ccc(Cl)cc2)C1 [Example 406, 4-(4-{[2-(4-chlorophenyl)-4,4-dimethylcyclohex-1-en-1-yl]methyl}piperazin-1-yl)-N-({5-cyano-6-[(4-fluorotetrahydro-2H-pyran-4-yl)methoxy]pyridin-3-yl}sulfonyl)-2-(1H-indazol-4-yloxy)benzamide] | 44.6 nM | 0.035 nM |  | 20.5 nM
16 | CC1(C)CCC(CN2CCN(c3ccc(C(=O)NS(=O)(=O)c4ccc(NC5CCN(S(C)(=O)=O)CC5)c([N+](=O)[O-])c4)c(Oc4cccc5[nH]ccc45)c3)CC2)=C(c2ccc(Cl)cc2)C1 [Example 338, 4-(4-{[2-(4-chlorophenyl)-4,4-dimethylcyclohex-1-en-1-yl]methyl}piperazin-1-yl)-2-(1H-indol-4-yloxy)-N-[(4-{[1-(methylsulfonyl)piperidin-4-yl]amino}-3-nitrophenyl)sulfonyl]benzamide] | > 660 nM | 0.403 nM |  | 71.1 nM
17 | CC1(C)CCC(CN2CCN(c3ccc(C(=O)NS(=O)(=O)c4ccc(NCC5CCC(F)(F)CC5)c([N+](=O)[O-])c4)c(Oc4cccc5[nH]ncc45)c3)CC2)=C(c2ccc(Cl)cc2)C1 [Example 412, 4-(4-{[2-(4-chlorophenyl)-4,4-dimethylcyclohex-1-en-1-yl]methyl}piperazin-1-yl)-N-[(4-{[(4,4-difluorocyclohexyl)methyl]amino}-3-nitrophenyl)sulfonyl]-2-(1H-indazol-4-yloxy)benzamide] | 135 nM | 0.021 nM | 6545.5 | 9.48 nM
